We go through eleven compounds from patent US9051318B2, “Pyrido [2, 3-B] pyrazine compounds and their therapeutical uses such as for inhibiting ATP consuming proteins and treating diseases associated therewith” (Merck Patent GmbH, priority 2011, dated 2015).

One experiment has as its target T1, GST-ALK5 (Homo sapiens, UniProt P36897).
T1 sequence (P36897 34-503): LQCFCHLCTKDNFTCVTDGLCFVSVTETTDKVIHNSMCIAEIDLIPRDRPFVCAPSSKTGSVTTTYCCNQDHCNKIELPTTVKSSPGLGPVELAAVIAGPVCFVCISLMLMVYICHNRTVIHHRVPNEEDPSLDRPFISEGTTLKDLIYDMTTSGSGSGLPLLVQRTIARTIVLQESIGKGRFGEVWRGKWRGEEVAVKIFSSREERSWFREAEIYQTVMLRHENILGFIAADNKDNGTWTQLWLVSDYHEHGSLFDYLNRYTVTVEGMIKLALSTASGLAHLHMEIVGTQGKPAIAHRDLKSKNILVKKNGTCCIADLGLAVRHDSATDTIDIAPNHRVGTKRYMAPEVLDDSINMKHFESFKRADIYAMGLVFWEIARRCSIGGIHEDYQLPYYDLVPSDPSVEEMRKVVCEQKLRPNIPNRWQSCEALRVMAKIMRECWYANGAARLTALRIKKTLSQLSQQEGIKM
In words: In-vitro (enzyme) kinase flashplate assay, TGF-beta receptor kinase (Example 9). Conditions: GST-ALK5, GST-SMAD2 substrate, 3 mM ATP, 30° C. 45 min; read-out: TβR activity (Example 9). It counts as biochemical. How it is done: The kinase assay was carried out as 384-well flashplate assay. 31.2 nM of GST-ALK5, 439 nM of GST-SMAD2 and 3 mM of ATP (with 0.3 μCi of ^33P-ATP/well) were incubated in a total volume of 35 μl (20 mM of HEPES, 10 mM of MgCl2, 5 mM of MnCl2, 1 mM of DTT, 0.1% of BSA, pH 7.4) without or with test substance (5-10 concentrations) at 30° C. for 45 min. The reaction was stopped using 25 μl of 200 mM EDTA solution, filtered with suction at room temperature after 30 min, and the wells were washed with 3 times 100 μl of 0.9% NaCl solution. Radioactivity was measured in the TopCount. The IC50 values were calculated using RS 1.

Experiment [1] concerns TGF-beta-induced phosphorylation of Smad2 (Ser465/467) and Smad3 (Ser423/425) in Mv1-Lu cells. Nature of the experiment: Inhibition of Smad2/3 phosphorylation in Mv1Lu cells (Example 10). As to conditions: Neogale vison, TGF-beta 1 5 ng/ml, phospho-Smad2/3 ELISA, read-out: TβR activity (Example 10). It is filed as cell-based, mink Mustela vison. The method, then: This assay was used to determine the inhibitory potency of compounds on TGF-beta-induced phosphorylation of Smad2 (Ser465/467) and Smad3 (Ser423/425). Mv1-Lu cells (lung epithelial cell line from mink Mustela vison; ATCC number: CCL-64) were seeded in DMEM (Invitrogen) supplemented with 10% fetal bovine serum (Pan Biotech) at a defined cell density in 24-well or 96-well plates (24-well plate: 1.5×10^5 cells per well; 96-well plate: 4×10^4 cells per well). Cell cultures were incubated in DMEM at 37° C. and 10% CO2. On the next day, the medium was replaced and cells were serum-starved for 16-20 hours. The following day, serial dilutions of compounds were added to the wells, pre-incubated for 1.5 hrs before recombinant TGF-beta 1 ligand (final concentration 5 ng/ml; R&D systems) was added. After one hour of ligand stimulation, lysates were prepared and analyzed using an enzyme-linked immunosorbent assay kit (PathScan Phospho-Smad2 Kit, Cell Signaling Technologies). The ELISA detects phosphorylated Smad2 as well as phosphorylated Smad3 with the phospho-specific antibody. TGF-beta stimulated cells and unstimulated cells served as positive and negative controls (100% and background control). The concentration of the vehicle DMSO was kept constant at 0.2% (v/v) in all wells. Dose-response relationships were fitted using curve fitting algorithms of the RS1 statistics software package (Brooks Automation Inc. RS/1—Statistical Tools Handbook. Release 6.2) to determine the concentration at which half-maximal inhibition (IC50) of Smad2/3 phosphorylation was achieved.

Consider `Fc1ccccc1-c1cc(Nc2ccncc2)c2nccnc2n1` [Compound 1, [6-(2-Fluorophenyl)-pyrido[2,3-b]pyrazin-8-yl]-pyridin-4-yl-amine], for which the IC50 (at GST-ALK5; in experiment [1]) was below 1000 nM in each case.

In the case of `Fc1ccc(Cl)cc1-c1cc(Nc2ccncc2)c2nccnc2n1` [Compound 2, [6-(5-Chloro-2-fluoro-phenyl)-pyrido[2,3-b]pyrazin-8-yl]-pyridin-4-yl-amine], the IC50 (at GST-ALK5; in experiment [1]) was below 1000 nM in each case.

Consider `Nc1nccc2c(-c3cc(-c4ccccc4F)nc4nccnc34)nccc12` [Compound 3, 5-[6-(2-Fluorophenyl)-pyrido[2,3-b]pyrazin-8-yl]-[2,6]naphthyridin-1-ylamine], for which the IC50 (on GST-ALK5; in experiment [1]) was below 1000 nM throughout.

For the compound `Nc1nccc2c(-c3cc(-c4ccccc4F)nc4nccnc34)cccc12` [Compound 4, 5-[6-(2-Fluorophenyl)-pyrido[2,3-b]pyrazin-8-yl]-isoquinolin-1-ylamine], the IC50 (on GST-ALK5; in experiment [1]) was below 1000 nM in each case.

For `Nc1nccc2c(-c3cc(-c4cc(Cl)ccc4F)nc4nccnc34)nccc12` [Compound 5, 5-[6-(5-Chloro-2-fluorophenyl)-pyrido[2,3-b]pyrazin-8-yl]-[2,6]naphthyridin-1-ylamine], in experiment [1], the IC50 is below 1000 nM.

On to `Nc1ncc(-c2cc(-c3ccccc3F)nc3nccnc23)c2ccncc12` [Compound 6, 4-[6-(2-Fluorophenyl)-pyrido[2,3-b]pyrazin-8-yl]-[2,7]naphthyridin-1-ylamine], for which the IC50 (on GST-ALK5; in experiment [1]) was below 1000 nM each time.

On to `Nc1nccc2c(-c3cc(-c4cc(F)ccc4F)nc4nccnc34)nccc12` [Compound 8, 5-[6-(2,5-Difluoro-phenyl)pyrido[2,3-b]pyrazin-8-yl]-2,6-naphthyridin-1-amine], for which the IC50 in experiment [1] is below 1000 nM.

Take `CN1CCC(n2cc(-c3cncc(-c4cc(-c5ccccc5F)nc5nccnc45)c3)cn2)CC1` [Compound 9, 6-(2-Fluorophenyl)-8-{5-[1-(1-methyl-piperidin-4-yl)-1H-pyrazol-4-yl]-pyridin-3-yl}-pyrido[2,3-b] pyrazine]: the IC50 (at GST-ALK5; in experiment [1]) was below 1000 nM throughout.

As for `Cn1cc(-c2cncc(-c3cc(-c4ccccc4F)nc4nccnc34)c2)cn1` [Compound 10, 6-(2-Fluorophenyl)-8-[5-(1-methyl-1H-pyrazol-4-yl)-pyridin-3-yl]-pyrido[2,3-b] pyrazine], the IC50 (at GST-ALK5; in experiment [1]) was below 1000 nM in each case.

Take `OCCn1cc(-c2cncc(-c3cc(-c4ccccc4F)nc4nccnc34)c2)cn1` [Compound 12, 2-[4-[5-[6-(2-Fluorophenyl)pyrido [2,3-b]pyrazin-8-yl]-3-pyridyl]pyrazol-1-yl]ethanol]: the IC50 (at GST-ALK5; in experiment [1]) was below 1000 nM throughout.

Turning to `Fc1ccc(Cl)cc1-c1cc(Nc2ccnc3ccoc23)c2nccnc2n1` [Compound 14, N-[6-(5-Chloro-2-fluorophenyl)pyrido [2,3-b]pyrazin-8-yl]furo[3,2-b]pyridin-7-amine], the IC50 (on GST-ALK5; in experiment [1]) was below 1000 nM each time.
